Data: patent US20110201578A1, “COMPOSITION AND METHODS FOR THE TREATMENT OF PSEUDOFOLLICULITIS BARBAE AND SKIN IRRITATION” (priority 2010, published 2011)

What was measured:
[1] = pH of the acidic solution of the substance used by itself; type: physicochemical; conditions: acetylsalicyclic acid by itself, unbuffered
skin = assay: Application to skin, detrimental effects; type: in vivo; conditions: used by itself, applied to skin; hours and/or days following application
Text: The low pKa results in an acidic solution having a pH of about 1.9, which damages skin and results in skin peeling in the hours and/or days following application to skin.

## CC(=O)Oc1ccccc1C(=O)O [acetylsalicyclic acid]
[1]
  pH of resulting acidic solution: about 1.9
skin
  effect on skin: acts as a skin peeler
